Assay results reported in patent US20260016473A1 (priority 2022, published 2026).

Key:
SARS-CoV2 Spike S1 = target: T1, SARS-CoV2 Spike S1 (Severe acute respiratory syndrome coronavirus 2, UniProt P0DTC2); format: biochemical, SARS-CoV-2
T1 construct: SARS-CoV2 Spike S1 (Product number: 40591-V08); purchased Sino Biological, Inc. 40591-V08

SARS-CoV2 Spike S2 = target: T2, SARS-CoV2 Spike S2 (Severe acute respiratory syndrome coronavirus 2, UniProt P0DTC2); format: biochemical, SARS-CoV-2
T2 construct: SARS-CoV2 Spike S2 (Product number: 40590-V08H1); purchased Sino Biological, Inc. 40590-V08H1

SARS-CoV2 Spike RBD = target: T3, SARS-CoV2 Spike RBD (Severe acute respiratory syndrome coronavirus 2, UniProt P0DTC2); format: biochemical, SARS-CoV-2
T3 construct: purchased Sino Biological, Inc. 40592-V08H

SARS-CoV Spike S1 = SARS-CoV Spike S1 (Severe acute respiratory syndrome coronavirus, UniProt P59594); format: biochemical
MERS-CoV Spike S1 = MERS-CoV Spike S1 (Middle East respiratory syndrome-related coronavirus, UniProt K9N5Q8); format: biochemical
MERS-CoV Spike S1, sequence (K9N5Q8 18-751 limits assumed): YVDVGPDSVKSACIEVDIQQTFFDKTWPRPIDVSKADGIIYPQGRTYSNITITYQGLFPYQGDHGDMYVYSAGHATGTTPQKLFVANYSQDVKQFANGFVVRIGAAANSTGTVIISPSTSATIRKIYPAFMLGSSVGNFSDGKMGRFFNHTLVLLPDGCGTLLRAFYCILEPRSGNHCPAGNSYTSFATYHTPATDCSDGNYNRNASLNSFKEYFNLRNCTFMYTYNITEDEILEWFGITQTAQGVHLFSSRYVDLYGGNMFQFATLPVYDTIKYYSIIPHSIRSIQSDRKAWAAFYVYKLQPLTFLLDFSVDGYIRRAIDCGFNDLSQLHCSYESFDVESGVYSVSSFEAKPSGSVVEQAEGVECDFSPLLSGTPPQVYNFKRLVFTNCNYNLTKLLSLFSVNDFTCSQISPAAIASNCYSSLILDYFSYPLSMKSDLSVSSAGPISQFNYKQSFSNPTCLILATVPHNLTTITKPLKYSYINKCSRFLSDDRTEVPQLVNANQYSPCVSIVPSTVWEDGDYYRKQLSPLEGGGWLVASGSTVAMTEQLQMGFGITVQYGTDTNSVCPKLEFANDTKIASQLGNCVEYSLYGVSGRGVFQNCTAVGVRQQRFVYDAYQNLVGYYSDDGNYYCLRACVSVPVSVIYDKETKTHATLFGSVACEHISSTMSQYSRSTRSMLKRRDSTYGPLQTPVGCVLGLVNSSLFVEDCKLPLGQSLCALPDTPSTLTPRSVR

human serum-derived IgA = format: biochemical
[1] = test system: α-amylase, Lactoferrin, Lysozyme, Mucin, EGF, IgA; format: biochemical

CCC(C)c1nc2c(CCCNC(=N)N)[nH]c(-c3c[nH]c4ccccc34)cn-2c1=O (centres unmarked) [Cypridina Luciferin]
luminescent reaction at S1 (SARS-CoV2 Spike S1): caused a luminescent reaction
reaction with spike protein of SARS-CoV-2 (SARS-CoV2 Spike S1): reacted
luminescent reaction at S2 (SARS-CoV2 Spike S2): caused a luminescent reaction
luminescent reaction at the RBD domain (SARS-CoV2 Spike RBD): did not cause a reaction at the PBD domain at all
reaction with spike protein of SARS-CoV (SARS-CoV Spike S1): reacted
reaction with the protein of MERS-CoV (MERS-CoV Spike S1): did not react
luminescent reaction with immunoglobulin protein IgA (human serum-derived IgA): did not cause a luminescent reaction
luminescent reaction with various proteins [1]: did not cause a luminescent reaction
